Assay results from patent US20260176289A1, “SMALL MOLECULE INHIBITORS OF KRAS PROTEINS” (Merck Sharp & Dohme LLC, priority 2022, published 2026).
Where two headings read alike, the source gives them in different places.

Assays:
KRAS-WT = KRAS-WT (Homo sapiens, UniProt P01116); test: SOS-catalyzed nucleotide exchange assay (Procedure A, TR-FRET), KRAS-WT; assay type: biochemical; conditions: nucleotide exchange, read-out: KRAS WT GNE IC50
Method in brief: (§1)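 Inhibitors stabilizing the Bodipy-GDP state are detected as retained TR-FRET from a preformed biotinylated RAS/Tb-streptavidin complex. They are preincubated 60 min at room temperature, then human SOS and 3 mM GTP are added. G12V runs 90 min at 1.25 nM RAS/160 nM SOS. G12C (3 nM), WT (1 nM) and NRAS (1.25 nM) run 60 min with 40 nM SOS.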

KRAS-G12V = KRAS-G12V (Homo sapiens, UniProt P01116, G12V); test: SOS-catalyzed nucleotide exchange assay (Procedure A, TR-FRET), KRAS-G12V; assay type: biochemical; conditions: nucleotide exchange, read-out: KRAS G12V GNE IC50
Method in brief: as §1

KRAS-G13D = KRAS-G13D (Homo sapiens, UniProt P01116, G13D); test: SOS-catalyzed nucleotide exchange assay (Procedure A, TR-FRET), KRAS-G13D; assay type: biochemical; conditions: nucleotide exchange, Procedure A; read-out: KRAS G13D GNE IC50
Description: (§2) Procedure for SOS-Catalyzed Nucleotide Exchange Assay for KRAS-WT, G12C/D/V, G13D, HRAS, and NRAS (Procedure A)
(§3) Recombinant KRAS-G12C protein used in this assay has an additional triple mutation (C51S/C80L/C118S). Whereas KRAS-WT, G12D/V, G13D, HRAS and NRAS are in context of their WT protein sequence background. Specifically, the SOS-catalyzed nucleotide exchange assay utilizes a preformed TR-FRET complex containing a specific biotinylated RAS protein (KRAS-WT, G12C/V/D, G13D, HRAS, NRAS; described above) with Bodipy-GDP, and Terbium-streptavidin. Compounds are preincubated with this complex for 60 minutes. Subsequently, recombinant human SOS protein and unlabeled GTP are added to initiate the exchange reaction. Small molecule inhibitors stabilize the Bodipy-GDP complex whereas the untreated protein rapidly exchanges Bodipy-GDP for unlabeled GTP resulting in reduced TR-FRET signal.
(§4) To assemble the preformed TR-FRET complexes, each biotinylated RAS protein is diluted to 2 μM in an EDTA Buffer (20 mM HEPES pH 7.5, 50 mM sodium chloride, 10 mM EDTA, and 0.01% Tween) and incubated at room temperature for one hour. This mixture is then further diluted to 90 nM in an Assay Buffer (20 mM HEPES pH 7.5, 150 mM sodium chloride, 10 mM magnesium chloride, and 0.005% Tween) containing 15 nM of Terbium-Streptavidin (Invitrogen, catalog #PV3577) and 900 nM of Bodipy-GDP (Invitrogen, catalog #G22360) and incubated at room temperature for six hours. It should be noted that this preformed TR-FRET complex for each of the RAS protein were made ahead of time, aliquoted and stored at −80° C. until the day of the experiment.
(§5) Each test compound (10 mM stock in DMSO) is diluted in DMSO to make a final-10-point, 3-fold dilution and is acoustically dispensed into a 384-well assay plate (Corning, catalog #3820) using an Echo 550 (Labcyte). Each well of the assay plate receives 3 μL of a specific 3×RAS preformed TR-FRET complex and 3 μL of Assay Buffer and is incubated at room temperature for 60 minutes (preincubation time). Each well then receives 3 μL of 3×recombinant human SOS protein and GTP (Sigma, G8877) in Assay Buffer and is incubated at room temperature for 30 minutes (G13D), 60 minutes (KRAS WT/G12C/D, H/NRAS) or 90 minutes for G12V. The final reaction in each well of 9 μL consists of 3 mM GTP, specific Ras and SOS proteins in the following concentrations: KRAS-G12C/SOS=3 nM/40 nM, KRAS-WT and G12D/SOS=1 nM/40 nM, KRAS-G12V/SOS=1.25 nM/160 nM. KRAS-G13D/SOS=1.25 nM/0 nM, HRAS and NRAS=1.25 nM/40 nM.
(§6) The time-resolved fluorescence resonance energy transfer (TR-FRET) signal is measured on an Envision (PerkinElmer) plate reader: Excitation filter=340 nm; emission 1=495 nm; emission2=520 nm; dichroic mirror=D400/D505; delay time=[…]. The signal of each well is determined as the ratio of the emission at 520 nm to that at 495 nm. Percent effect of each well is determined after normalization to control wells containing DMSO (no effect) or a saturating concentration of inhibitor (max effect). The apparent effect as a function of compound concentration is fit to a four-parameter logistic equation.

KRAS-G12D = KRAS-G12D (Homo sapiens, UniProt P01116, G12D); test: SOS-catalyzed nucleotide exchange assay (Procedure A, TR-FRET), KRAS-G12D; assay type: biochemical; conditions: nucleotide exchange, read-out: KRAS G12D GNE IC50
Method in brief: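 Signal ratio (520/495 nm, excitation 340 nm) reports Bodipy-GDP retention on biotinylated RAS after SOS-catalyzed exchange with 3 mM GTP. SOS was 40 nM, except 160 nM for G12V. Room-temperature exchange lasted 60 min (90 min for G12V), following a 60 min compound preincubation.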

AsPC-1 cells = test: Cellular phospho-ERK assay, AsPC-1 cells (homozygous KRAS-G12D); assay type: cell-based; conditions: Homo sapiens, ASPC1, 2 h, read-out: AsPC1 pERK IC50
Method in brief: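 Cells were seeded overnight, then treated 2 h at 37° C with compound in a 10-point, 1:3 titration from 30 μM top final concentration. Lysates were assayed by AlphaLISA SureFire Ultra for p-ERK and total ERK. IC50 came from a 4-parameter logistic fit of the p-ERK/total ERK ratio.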

[1] = target: KRAS-G12C (C51S/C80L/C118S) (Homo sapiens, UniProt P01116, C118S/C51S/C80L/G12C); test: SOS-catalyzed nucleotide exchange assay (Procedure A, TR-FRET), KRAS-G12C; assay type: biochemical; conditions: nucleotide exchange, Procedure A; read-out: KRAS G12C GNE IC50
Description: as §2, §3, §4, §5, §6

Sequence of KRAS-G13D (P01116 with tags, fused parts or gaps isoform P01116-2 G13D): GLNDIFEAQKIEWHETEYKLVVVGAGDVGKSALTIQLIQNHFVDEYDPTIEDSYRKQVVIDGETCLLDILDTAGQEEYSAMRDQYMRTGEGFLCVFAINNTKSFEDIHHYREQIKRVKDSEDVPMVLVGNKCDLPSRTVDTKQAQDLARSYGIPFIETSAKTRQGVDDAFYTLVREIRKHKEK
Sequence of KRAS-G12C (C51S/C80L/C118S) (P01116 with tags, fused parts or gaps isoform P01116-2 G12C/C51S/C80L/C118S): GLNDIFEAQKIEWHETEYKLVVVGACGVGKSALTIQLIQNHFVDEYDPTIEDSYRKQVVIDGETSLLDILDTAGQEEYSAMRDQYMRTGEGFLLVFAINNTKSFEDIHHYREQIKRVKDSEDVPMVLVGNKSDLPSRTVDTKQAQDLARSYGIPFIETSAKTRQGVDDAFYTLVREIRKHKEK
Sequence of KRAS-G12V (P01116 with tags, fused parts or gaps isoform P01116-2 G12V): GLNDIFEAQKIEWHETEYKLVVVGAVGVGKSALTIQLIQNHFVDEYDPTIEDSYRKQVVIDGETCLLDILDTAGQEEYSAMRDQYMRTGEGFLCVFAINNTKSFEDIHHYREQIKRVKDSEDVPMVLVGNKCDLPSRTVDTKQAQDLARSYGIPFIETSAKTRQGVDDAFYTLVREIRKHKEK
Sequence of KRAS-WT (P01116 with tags, fused parts or gaps isoform P01116-2): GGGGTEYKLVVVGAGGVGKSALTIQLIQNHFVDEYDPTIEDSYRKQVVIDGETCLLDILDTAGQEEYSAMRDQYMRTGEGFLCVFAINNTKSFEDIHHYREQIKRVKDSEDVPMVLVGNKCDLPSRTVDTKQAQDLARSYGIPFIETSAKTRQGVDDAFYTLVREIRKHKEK
Sequence of KRAS-G12D (P01116 with tags, fused parts or gaps isoform P01116-2 G12D): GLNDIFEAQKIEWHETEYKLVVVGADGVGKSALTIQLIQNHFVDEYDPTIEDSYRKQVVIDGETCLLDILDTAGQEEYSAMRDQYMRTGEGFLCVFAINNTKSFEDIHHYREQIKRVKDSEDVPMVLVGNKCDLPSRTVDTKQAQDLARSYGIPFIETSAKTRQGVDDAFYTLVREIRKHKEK

Cc1cc2[nH]ncc2c(-c2nccc3c2sc2nc(OC[C@@]45CCCN4C[C@H](F)C5)nc(NC4CCOC4)c23)c1C(F)(F)F (stereo partly drawn) [Ex-188, 2-(((2R,7aS)-2-fluoro-tetrahydro-1H-pyrrolizin-7a(5H)-yl)methoxy)-8-(6-methyl-5-(trifluoromethyl)-1H-indazol-4-yl)-N-(tetra-hydrofuran-3-yl)pyrido [4′,3′:4,5]thieno[2,3-d] pyrimidin-4-amine]
IC50 (KRAS-WT): 1.86 µM | IC50 (KRAS-G12V): 0.753 µM | IC50 (KRAS-G13D): 1.25 µM | IC50 (KRAS-G12D): 4.95 µM | IC50 (AsPC-1 cells; 2 hours compound incubation): 3.66 µM | IC50 [1]: 0.561 µM

Cc1cc2[nH]ncc2c(-c2ncnc3c2sc2nc(OC[C@@]45CCCN4C[C@H](F)C5)nc(N4CCOC[C@@](C)(O)C4)c23)c1C(F)(F)F [Ex-276, (6S)-4-(7-(((2R,7aS)-2-fluorotetrahydro-1H-pyrrolizin-7a(5H)-yl)methoxy)-4-(6-methyl-5-(trifluoromethyl)-1H-indazol-4-yl)thieno[2,3-d:4,5-d′]dipyrimidin-9-yl)-6-methyl-1,4-oxazepan-6-ol]
IC50 (KRAS-WT): 0.796 µM | IC50 (KRAS-G12V): 0.312 µM | IC50 (KRAS-G13D): 0.461 µM | IC50 (KRAS-G12D): 0.423 µM | IC50 (AsPC-1 cells; KRAS-G12D, 2 hours): 1.81 µM | IC50 [1]: 0.124 µM

Cc1cc2[nH]ncc2c(-c2nccc3c2sc2nc(OC[C@@]45CCCN4C[C@H](F)C5)nc(N4CCCC5(CNC(=O)C5)C4)c23)c1C(F)(F)F (stereo partly drawn) [Ex-193, 7-(2-(((2R,7aS)-2-fluoro-tetrahydro-1H-pyrrolizin-7a(5H)-yl)methoxy)-8-(6-methyl-5-(trifluorometh-yl)-1H-indazol-4-yl)pyrido [4′,3′:4,5]thieno[2,3-d]pyrimidin-4-yl)-2,7-diaza-spiro[4.5]decan-3-one]
IC50 (KRAS-WT): 1.2 µM | IC50 (KRAS-G12V): 0.476 µM | IC50 (KRAS-G13D): 0.97 µM | IC50 (KRAS-G12D): 0.643 µM | IC50 (AsPC-1 cells; 2 hours compound incubation): 18.3 µM | IC50 [1]: 0.418 µM

Cc1cc2[nH]ncc2c(-c2nccc3c2sc2nc(OC[C@@]45CCCN4C[C@H](F)C5)nc(N4CCOC[C@@](C)(O)C4)c23)c1C1=CCCC1 [Ex-140, (6S)-4-(8-(5-(cyclo-pent-1-en-1-yl)-6-methyl-1H-indazol-4-yl)-2-(((2R,7aS)-2-fluorotetrahydro-1H-pyrrolizin-7a(5H)-yl)methoxy)pyrido [4′,3′:4,5]thieno[2,3-d]pyrimidin-4-yl)-6-methyl-1,4-oxaze-pan-6-ol]
IC50 (KRAS-WT): 0.184 µM | IC50 (KRAS-G12V): 0.0653 µM | IC50 (KRAS-G13D): 0.172 µM | IC50 (KRAS-G12D): 0.0693 µM | IC50 (AsPC-1 cells; 2 hours compound incubation): 0.56 µM | IC50 [1]: 0.362 µM

CC1(O)COCCN(c2nc(OCC34CCCN3CC(F)C4)nc3sc4c(-c5c(C6CC6)c(F)cc6[nH]ncc56)nccc4c23)C1 [Ex-47, (6S)-4-(8-(5-cyclopropyl-6-fluoro-1H-indazol-4-yl)-2-(((2R,7aS)-2-fluorotetrahydro-1H-pyrrolizin-7a(5H)-yl)methoxy)pyrido[4′,3′:4,5]thi-eno[2,3-d]pyrimidin-4-yl)-6-methyl-1,4-oxazepan-6-ol]
IC50 (KRAS-WT): 0.101 µM | IC50 (KRAS-G12V): 0.055 µM | IC50 (KRAS-G13D): 0.0326 µM | IC50 (KRAS-G12D): 0.032 µM | IC50 (AsPC-1 cells; KRAS-G12D, 2 hours): 0.385 µM | IC50 [1]: 0.0179 µM

Cc1cc2[nH]ncc2c(-c2nccc3c2sc2nc(OC[C@@]45CCCN4C[C@H](F)C5)nc(N4CCOC[C@@](C)(O)C4)c23)c1-c1cccs1 [Ex-138, (6S)-4-(2-(((2R, 7aS)-2-fluorotetra-hydro-1H-pyrrolizin-7a(5H)-yl)methoxy)-8-(6-methyl-5-(thio-phen-2-yl)-1H-ind-azol-4-yl)pyrido [4′,3′:4,5]thieno[2,3-d]pyrimidin-4-yl)-6-methyl-1,4-oxaze-pan-6-ol]
IC50 (KRAS-WT): 0.398 µM | IC50 (KRAS-G12V): 0.245 µM | IC50 (KRAS-G13D): 0.337 µM | IC50 (KRAS-G12D): 0.15 µM | IC50 (AsPC-1 cells; 2 hours compound incubation): 0.703 µM | IC50 [1]: 0.12 µM

Cc1cc2[nH]ncc2c(-c2nccc3c2sc2nc(OC[C@@]45CCCN4C[C@H](F)C5)nc(N4CCOC[C@@](C)(O)C4)c23)c1-c1ccsc1 [Ex-139, (6S)-4-(2-(((2R, 7aS)-2-fluorotetra-hydro-1H-pyrrol-izin-7a(5H)-yl)meth-oxy)-8-(6-methyl-5-(thiophen-3-yl)-1H-indazol-4-yl)pyrido [4′,3′:4,5]thieno[2,3-d]pyrimidin-4-yl)-6-methyl-1,4-oxaze-pan-6-ol]
IC50 (KRAS-WT): 0.319 µM | IC50 (KRAS-G12V): 0.128 µM | IC50 (KRAS-G13D): 0.377 µM | IC50 (KRAS-G12D): 0.129 µM | IC50 (AsPC-1 cells; 2 hours compound incubation): 0.663 µM | IC50 [1]: 0.159 µM

C[C@@]1(O)COCCN(c2nc(OC[C@@]34CCCN3C[C@H](F)C4)nc3sc4c(-c5c(-c6cccs6)c(Cl)cc6[nH]ncc56)nccc4c23)C1 [Ex-143, (6S)-4-(8-(6-chloro-5-(thiophen-2-yl)-1H-indazol-4-yl)-2-(((2R,7aS)-2-fluoro-tetrahydro-1H-pyr-rolizin-7a(5H)-yl)-methoxy)pyrido [4′,3′:4,5]thieno[2,3-d]pyrimidin-4-yl)-6-methyl-1,4-oxaze-pan-6-ol]
IC50 (KRAS-WT): 0.197 µM | IC50 (KRAS-G12V): 0.109 µM | IC50 (KRAS-G13D): 0.124 µM | IC50 (KRAS-G12D): 0.108 µM | IC50 (AsPC-1 cells; 2 hours compound incubation): 0.331 µM | IC50 [1]: 0.0529 µM

Cc1cc2[nH]ncc2c(-c2nccc3c2sc2nc(OC[C@@]45CCCN4C[C@H](F)C5)nc(NC4(CO)COC4)c23)c1C(F)(F)F [Ex-185, (3-((2-(((2R,7aS)-2-fluoro-tetrahydro-1H-pyrrolizin-7a(5H)-yl)methoxy)-8-(6-methyl-5-(trifluoromethyl)-1H-indazol-4-yl)pyrido [4′,3′:4,5]thieno[2,3-d]pyr-imidin-4-yl)amino)oxetan-3-yl)methanol]
IC50 (KRAS-WT): 1.37 µM | IC50 (KRAS-G12V): 0.319 µM | IC50 (KRAS-G13D): 0.842 µM | IC50 (KRAS-G12D): 0.482 µM | IC50 (AsPC-1 cells; 2 hours compound incubation): 4.58 µM | IC50 [1]: 0.146 µM

C#Cc1cccc2[nH]nc(-c3nccc4c3sc3nc(OC[C@@]56CCCN5C[C@H](F)C6)nc(N5CCOC[C@@](C)(O)C5)c34)c12 [Ex-159, (S)-4-(8-(4-ethynyl-1H-indazol-3-yl)-2-(((2R,7aS)-2-fluorotetrahydro-1H-pyrrolizin-7a(5H)-yl)methoxy)pyrido[4′,3′:4,5]thieno[2,3-d]pyrimidin-4-yl)-6-methyl-1,4-oxazepan-6-ol]
IC50 (KRAS-WT): 0.658 µM | IC50 (KRAS-G12V): 0.118 µM | IC50 (KRAS-G13D): 0.328 µM | IC50 (KRAS-G12D): 0.26 µM | IC50 (AsPC-1 cells; 2 hours compound incubation): 1.17 µM | IC50 [1]: 0.0483 µM
